Test [1] concerns Hyperglycemia model mice (TSOD mouse). The test can be described thus: Blood glucose level in hyperglycemia model mice (TSOD) bred on mixed feed for 5 days. The test is classed as in vivo. As to the method: Mixed feeds of Examples 1 to 3 and Comparative Examples 1 to 4 were prepared by mixing a commercially available feed (trade name: D12450B, product of Research Diet Co.) with Panax notoginseng powder (product of MATSUURA YAKUGYO CO., LTD.) and at least one of Piper longum extract (trade name, LONG PEPPER EXTRACT POWDER MF, composition: 10% by mass of a hot water extract of Piper longum, 90% by mass of dextrin, product of MARUZEN PHARMACEUTICALS CO., LTD.) and vitamin B1 nitrate (product of Wako Pure Chemical Industries, Ltd.) in respective amounts shown in the following Table 1. The above commercially available feed only was used in Comparative Example 4.
Hyperglycemia model mice (TSOD mouse (obtained from Institute for Animal Reproduction), 14 weeks old, 5 mice/group) were given ad libitum each of the mixed feeds of Examples 1 to 3 and Comparative Examples 1 to 4 to breed them for 5 days.
The blood glucose levels at 10 a.m. were measured by the below-described method, before giving the mixed feed to the hyperglycemia model mice (before the start of breeding with the mixed feed) and after giving the mixed feed to the hyperglycemia model mice for 5 days (after the breeding with the mixed feed). A significance test was performed using the Dunnett's multiple test.
Also, the difference between the blood glucose levels before the start of breeding with the mixed feed and after the breeding with the mixed feed (Δblood glucose level) was calculated using the following calculation formula.
Δ Blood glucose level (mg/dL)=Blood glucose level before the start of breeding with the mixed feed (mg/dL)−Blood glucose level after the breeding with the mixed feed (mg/dL)
(§1) The blood glucose level was measured with a simplified blood glucose level measuring system (trade name: CYCLIC GB SENSOR, product of Sanko Junyaku Co., Ltd.).

Test [2] deals with Hyperglycemia model mice (KKAy mice). The experiment in a line: Blood glucose level in hyperglycemia model mice (KKAy) bred on high fat diet mixed feed for 5 days. The test is classed as in vivo, mouse. The protocol:
as §1
Mixed feeds of Examples 4 to 7 and Comparative Examples 6 to 8 were prepared by mixing a commercially available high fat diet (trade name: Quick Fat, product of CLEA Japan, Inc.) with the acid-treated Panax notoginseng product produced in Production Example 1 and at least one of Piper longum extract (trade name, LONG PEPPER EXTRACT POWDER MF, composition: 10% by mass of a hot water extract of Piper longum, 90% by mass of dextrin, product of MARUZEN PHARMACEUTICALS CO., LTD.) and vitamin B1 nitrate (product of Wako Pure Chemical Industries, Ltd.) in respective amounts shown in the following Table 2. The mixed feed of Example 8 was prepared by using Panax notoginseng powder (product of MATSUURA YAKUGYO CO., LTD.) instead of the acid-treated Panax notoginseng product of Example 4. The above commercially available high fat diet only was used in Comparative Example 5.
Hyperglycemia model mice (KKAy mice (obtained from CLEA Japan, Inc.), 20 weeks old, 5 mice/group) were given ad libitum each of the mixed feeds of Examples 4 to 8 and Comparative Examples 5 to 8 to breed them for 5 days.
The blood glucose levels at 10 a.m. were measured in the same manner as in Example 1, before giving the mixed feed to the hyperglycemia model mice (before the start of breeding with the mixed feed) and after giving the mixed feed to the hyperglycemia model mice for 5 days (after the breeding with the mixed feed). A significance test was performed using the Dunnett's multiple test.

Setting [3] is: level before minus level after 5 days of mixed feed.

Structures are written as SMILES.

As to `Cc1ncc(C[n+]2csc(CCO)c2C)c(N)n1.O=[N+]([O-])[O-]` [compound 2, vitamin B1 nitrate], the “Blood glucose levels Before the start of breeding with the mixed feed” value in test [1] (14 weeks old, 10 a.m., average, baseline before mixed feed) is on record as 389.2 mg/dL. Also, in test [1] (setting [3]), the “Δ Blood glucose level” value came to 43.9 mg/dL. Moreover, in test [1] (mixed feed ad libitum for 5 days, 10 a.m., average), the “Blood glucose levels After the breeding with the mixed feed” value is recorded as 345.3 mg/dL.

Turning to `Cc1ncc(C[n+]2csc(CCO)c2C)c(N)n1.O=[N+]([O-])[O-]` [compound 8, vitamin B1 nitrate], the “Blood glucose levels Before the start of breeding with the mixed feed” value in test [2] (20 weeks old, 10 a.m., average, baseline before mixed feed) came to 551 mg/dL. Also, the “Blood glucose levels After the breeding with the mixed feed” value in test [2] (high fat diet mixed feed ad libitum for 5 days, 10 a.m., average) stood at 501 mg/dL. Also, in test [2] (setting [3]), the “Δ Blood glucose level” value was 50 mg/dL.

The record behind these values is patent US20140050805A1, “COMPOSITION, GLUCOSE METABOLISM-IMPROVING AGENT, AND METHOD FOR IMPROVING GLUCOSE METABOLISM” (Lion Corporation, priority 2011, published 2014).
